According to patent US20260285850A1, “SUBSTITUTED OXAZOLIDINONES AND IMIDAZOLINONES AS HERBICIDES” (FMC CORPORATION, priority 2023, published 2026):

Assays:
Assay type in all cases: in vivo
[1] = test system: palmer (palmer amaranth, palmer pigweed, Amaranthus palmeri); assay: Test A preemergence soil spray, visual injury rating 0-100; conditions: 10 days, 0 = no effect, 100 = complete control
Method in brief: (§1)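 Compounds formulated in a non-phytotoxic solvent with surfactant are sprayed onto soil of freshly planted loam-sand pots ahead of emergence, or onto emerged plants 2-10 cm tall. After a 10-day greenhouse period, each species is scored visually for injury against untreated controls.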

[2] = test system: oat, wild (wild oat, Avena fatua); assay: as above; conditions: 10 days, 0 = no effect, 100 = complete control
Method in brief: as §1

[3] = test system: blackgrass (Alopecurus myosuroides); assay: as above; conditions: 10 days, 0 = no effect, 100 = complete control
Method in brief: as §1

[4] = test system: wheat (Triticum aestivum); assay: as above; conditions: 10 days, 0 = no effect, 100 = complete control
Method in brief: as §1

[5] = test system: ragweed (common ragweed, Ambrosia artemisiifolia); assay: as above; conditions: 10 days, 0 = no effect, 100 = complete control
Method in brief: as §1

[6] = test system: kochia (Bassia scoparia); assay: as above; conditions: 10 days, 0 = no effect, 100 = complete control
Method in brief: as §1

[7] = test system: green foxtail (Setaria viridis); assay: as above; conditions: 10 days, 0 = no effect, 100 = complete control
Method in brief: as §1

[8] = test system: ryegrass, Italian (italian ryegrass, Lolium multiflorum); assay: as above; conditions: 10 days, 0 = no effect, 100 = complete control
Method in brief: as §1

[9] = test system: barnyardgrass (Echinochloa crus-galli); assay: as above; conditions: 10 days, 0 = no effect, 100 = complete control
Method in brief: as §1

[10] = test system: corn (Zea mays); assay: as above; conditions: 10 days, 0 = no effect, 100 = complete control
Method in brief: as §1

[11] = test system: soybean (Glycine max); assay: as above; conditions: 10 days, 0 = no effect, 100 = complete control
Method in brief: as §1

[12] = test system: palmer (palmer amaranth, palmer pigweed, Amaranthus palmeri); assay: Test A postemergence application, visual injury rating 0-100; conditions: 10 days
Method in brief: as §1

[13] = test system: oat, wild (wild oat, Avena fatua); assay: as above; conditions: 10 days
Method in brief: as §1

[14] = test system: blackgrass (Alopecurus myosuroides); assay: as above; conditions: 10 days
Method in brief: as §1

[15] = test system: wheat (Triticum aestivum); assay: as above; conditions: 10 days
Method in brief: as §1

[16] = test system: galium (catchweed bedstraw, Galium aparine); assay: as above; conditions: 10 days
Method in brief: as §1

[17] = test system: ragweed (common ragweed, Ambrosia artemisiifolia); assay: as above; conditions: 10 days
Method in brief: as §1

[18] = test system: kochia (Bassia scoparia); assay: as above; conditions: 10 days
Method in brief: as §1

[19] = test system: green foxtail (Setaria viridis); assay: as above; conditions: 10 days
Method in brief: as §1

[20] = test system: ryegrass, Italian (italian ryegrass, Lolium multiflorum); assay: as above; conditions: 10 days
Method in brief: as §1

[21] = test system: horseweed (Erigeron canadensis); assay: as above; conditions: 10 days
Method in brief: as §1

[22] = test system: barnyardgrass (Echinochloa crus-galli); assay: as above; conditions: 10 days
Method in brief: as §1

[23] = test system: corn (Zea mays); assay: as above; conditions: 10 days
Method in brief: as §1

[24] = test system: soybean (Glycine max); assay: as above; conditions: 10 days
Method in brief: as §1

[25] = test system: ducksalad (Heteranthera limosa); assay: Test B flooded paddy test, visual plant response rating 0-100; conditions: 250 g ai/ha, Flood, applied to paddy water, evaluated after 13 days
Method in brief: (§2)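 Visual evaluation after 13 days. Water-applied treatment, 3 cm flood depth held constant, plants at 2-leaf stage at treatment.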

[26] = test system: rice (Oryza sativa); assay: as above; conditions: 250 g ai/ha, Flood, applied to paddy water, evaluated after 13 days
Method in brief: as §2

[27] = test system: sedge, umbrella (small-flower umbrella sedge, Cyperus difformis); assay: as above; conditions: 250 g ai/ha, Flood, applied to paddy water, evaluated after 13 days
Method in brief: as §2

[28] = test system: barnyardgrass (Echinochloa crusgalli); assay: as above; conditions: 250 g ai/ha, Flood, applied to paddy water, evaluated after 13 days
Method in brief: as §2

[29] = 31 g ai/ha, postemergence, 0 = no effect, 100 = complete control
[30] = Postemergence, 125 g ai/ha, 0 is no effect, 100 is complete control

With CC1(C(=O)NC2C=CC(C(=O)OCc3ccc(F)cc3)C2)CN(c2cc(F)cc(F)c2)C(=O)O1 (stereo not shown) [Compound 54] the “Amaranth, Palmer plant response rating (0-100)” value ([1]; 31 g ai/ha) was 10, the “Amaranth, Palmer plant response rating (0 to 100 scale)” value ([1]; 125 g ai/ha) was 100 and the “Oat, Wild plant response rating (0-100)” value ([2]; 31 g ai/ha) was 0. For the same compound, the “Oat, Wild plant response rating (0 to 100 scale)” value ([2]; 125 g ai/ha) was 90, the “Blackgrass plant response rating (0-100)” value ([3]; 31 g ai/ha) was 20 and the “Blackgrass plant response rating (0 to 100 scale)” value ([3]; 125 g ai/ha) was 60. For the same compound, the “Wheat plant response rating (0-100)” value ([4]; 31 g ai/ha) was 80, the “Wheat plant response rating (0 to 100 scale)” value ([4]; 125 g ai/ha) was 90 and the “Ragweed plant response rating (0-100)” value ([5]; 31 g ai/ha) was 0. The “Ragweed plant response rating (0 to 100 scale)” value ([5]; 125 g ai/ha) was 0, the “Kochia plant response rating (0-100)” value ([6]; 31 g ai/ha) was 0 and the “Kochia plant response rating (0 to 100 scale)” value ([6]; 125 g ai/ha) was 90. The “Foxtail, Green plant response rating (0-100)” value ([7]; 31 g ai/ha) was 0, the “Foxtail, Green plant response rating (0 to 100 scale)” value ([7]; 125 g ai/ha) was 30 and the “Ryegrass, Italian plant response rating (0-100)” value ([8]; 31 g ai/ha) was 50. The “Ryegrass, Italian plant response rating (0 to 100 scale)” value ([8]; 125 g ai/ha) was 100, the “Barnyardgrass plant response rating (0-100)” value ([9]; 31 g ai/ha) was 30 and the “Barnyardgrass plant response rating (0 to 100 scale)” value ([9]; 125 g ai/ha) was 100. For the same compound, the “Corn plant response rating (0-100)” value ([10]; 31 g ai/ha) was 0, the “Corn plant response rating (0 to 100 scale)” value ([10]; 125 g ai/ha) was 30 and the “Soybean plant response rating (0-100)” value ([11]; 31 g ai/ha) was 10. The “Soybean plant response rating (0 to 100 scale)” value ([11]; 125 g ai/ha) was 70, the “Amaranth, Palmer plant response rating (0-100)” value [12, 29] was 90 and the “Amaranth, Palmer / Pigweed, Palmer plant response rating (0 to 100 scale)” value [12, 30] was 100. The “Oat, Wild plant response rating (0-100)” value [13, 29] was 90, the “Oat, Wild plant response rating (0 to 100 scale)” value [13, 30] was 100 and the “Blackgrass plant response rating (0-100)” value [14, 29] was 80. The “Blackgrass plant response rating (0 to 100 scale)” value [14, 30] was 90, the “Wheat plant response rating (0-100)” value [15, 29] was 90 and the “Wheat plant response rating (0 to 100 scale)” value [15, 30] was 90. For the same compound, the “Galium plant response rating (0-100)” value [16, 29] was 80, the “Galium plant response rating (0 to 100 scale)” value [16, 30] was 80 and the “Ragweed plant response rating (0-100)” value [17, 29] was 50. For the same compound, the “Ragweed plant response rating (0 to 100 scale)” value [17, 30] was 60, the “Kochia plant response rating (0-100)” value [18, 29] was 70 and the “Kochia plant response rating (0 to 100 scale)” value [18, 30] was 90. The “Foxtail, Green plant response rating (0-100)” value [19, 29] was 40, the “Foxtail, Green plant response rating (0 to 100 scale)” value [19, 30] was 60 and the “Ryegrass, Italian plant response rating (0-100)” value [20, 29] was 70. For the same compound, the “Ryegrass, Italian plant response rating (0 to 100 scale)” value [20, 30] was 90, the “Horseweed plant response rating (0-100)” value [21, 29] was 20 and the “Horseweed plant response rating (0 to 100 scale)” value [21, 30] was 80. The “Barnyardgrass plant response rating (0-100)” value [22, 29] was 70, the “Barnyardgrass plant response rating (0 to 100 scale)” value [22, 30] was 100 and the “Corn plant response rating (0-100)” value [23, 29] was 90. The “Corn plant response rating (0 to 100 scale)” value [23, 30] was 100, the “Soybean plant response rating (0-100)” value [24, 29] was 60 and the “Soybean plant response rating (0 to 100 scale)” value [24, 30] was 60. The “Plant response rating, Ducksalad (0 to 100 scale, 0 is no effect and 100 is complete control)” value [25] was 95, the “Plant response rating, Rice (0 to 100 scale, 0 is no effect and 100 is complete control)” value [26] was 15 and the “Plant response rating, Sedge, Umbrella (0 to 100 scale, 0 is no effect and 100 is complete control)” value [27] was 95. For the same compound, the “Plant response rating, Barnyardgrass (0 to 100 scale, 0 is no effect and 100 is complete control)” value [28] was 90.
